Measurements published in PubChem BioAssay (NCI).
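Dose response: 5 concentrations. Exposure: 48 h. Format: 96-well plates. Endpoint: linear interpolation; highest concentration if not reached. GI50 marks 50% less growth. TGI: total growth inhibition.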

What was measured:
Assay in all cases: inhibition of tumour cell growth, NCI panel, 48 h
KM12 colon = test system: KM12 colon
SW-620 colon = test system: SW-620 colon
CCRF-CEM leukemia = test system: CCRF-CEM leukemia
HOP-92 NSCLC = test system: HOP-92 NSCLC
RPMI-8226 leukemia = test system: RPMI-8226 leukemia
K-562 leukemia = test system: K-562 leukemia
NCI-H23 lung = test system: NCI-H23 lung
SK-OV-3 ovarian = test system: SK-OV-3 ovarian
OVCAR-8 ovarian = test system: OVCAR-8 ovarian
NCI-H522 lung = test system: NCI-H522 lung

| SMILES | GI50 (KM12 colon) [µM] | TGI (KM12 colon) [µM] | GI50 (SW-620 colon) [µM] | TGI (SW-620 colon) [µM] | GI50 (CCRF-CEM leukemia) [µM] | TGI (CCRF-CEM leukemia) [µM] | GI50 (HOP-92 NSCLC) [µM] | TGI (HOP-92 NSCLC) [µM] | GI50 (RPMI-8226 leukemia) [µM] | TGI (RPMI-8226 leukemia) [µM] | GI50 (K-562 leukemia) [µM] | TGI (K-562 leukemia) [µM] | GI50 (NCI-H23 lung) [µM] | TGI (NCI-H23 lung) [µM] | GI50 (SK-OV-3 ovarian) [µM] | TGI (SK-OV-3 ovarian) [µM] | GI50 (OVCAR-8 ovarian) [µM] | TGI (OVCAR-8 ovarian) [µM] | GI50 (NCI-H522 lung) [µM] | TGI (NCI-H522 lung) [µM] |
| --- | --- | --- | --- | --- | --- | --- | --- | --- | --- | --- | --- | --- | --- | --- | --- | --- | --- | --- | --- | --- |
| O=C1Nc2ccccc2/C1=C/c1cn(C(=O)c2c(Cl)cccc2Cl)c2ccccc12 | 1.76 | 3.95 | 2.9 | 12.5 | 0.337 | 15.6 | 1.54 | 6.33 | 3.38 | 23.6 | 3.14 | > 100 | 4.08 | 17.3 | 8.35 | 56.5 | 4.12 | 37.4 | 4.22 | 17.5 |
| CC1(C)N=C(N)N=C(N)N1c1ccc(OCC(=O)N2CCOCC2)c(Cl)c1 | 4.7 | > 100 | 0.714 | > 100 | 3.55 | > 100 | > 100 | > 100 | 9.04 | > 100 | 0.854 | > 100 | 1.5 | > 100 | 69.8 | > 100 | 7.25 | > 100 | 2.24 | > 100 |
| O=C1CCCC(=O)C1=C(O)CCCCCCCCCCc1ccccc1 | – | > 100 | – | > 100 | – | 70.8 | – | 39.6 | – | > 100 | – | > 100 | – | > 100 | – | 96.8 | – | > 100 | – | 82.2 |
| Cn1ccnc1C(=O)/C=C/c1ccc(C(=O)Nc2ccccc2O)cc1 | 1.96 | 4.44 | 1.62 | 4.12 | 1.13 | 8.25 | 2.11 | 6.68 | 0.62 | 3.8 | 0.939 | 34 | 2.91 | 9.67 | 4.13 | 14.5 | 3.29 | 14.9 | 1.86 | 5.47 |
| O=C1Cc2ccccc2N1c1c(Cl)cccc1Cl | – | > 100 | – | > 100 | – | > 100 | – | > 100 | – | 62.7 | – | > 100 | – | > 100 | – | > 100 | – | > 100 | – | > 100 |
| COc1cc(C(=O)N2CCN(c3ccccc3OC)CC2)c(N)cc1OCc1ccccc1 | 32.9 | 90.6 | 41.1 | > 100 | 34.7 | 98.3 | 14.8 | 43.4 | 21.1 | 49.2 | 27.2 | > 100 | 48.4 | > 100 | 49.9 | > 100 | 38.3 | > 100 | 25.9 | 80.6 |
